Values quoted from earlier work in US6706285B1, “Enteric coated formulation of a benzimidazole derivative and method for preparation thereof” (Hanms Pharm. Co., Ltd., priority 1998, dated 2004).
Read-outs that look alike come from different tables or passages of the source.

In the case of `COc1ccc2[nH]c([S+]([O-])Cc3ncc(C)c(OC)c3C)nc2c1` (stereo not drawn) [omeprazole, 5-methoxy-2[[(4-methoxy-3,5-dimethyl-2-pyridinyl)methyl]sulfinyl]-1H-benzimidazole], the half-life (acidic condition at a pH of 4 or less) is listed as “less than 10 minutes”, the half-life (at a pH of 11) is listed as “about 300 days” and the half-life (neutral condition at a pH of about 7.0) is listed as “about 14 hours”.
